Test [1] relates to XIAP. The test can be described thus: Co-immunoprecipitation of ARTS-XIAP complexes in COS-7 cells. In kind it is cell-based, African Green Monkey. On the procedure:
(§1) Protein extracts were prepared with lysis buffer (150 mM NaCl, 50 mM Tris-HCl (pH 8), 1% NP-40, 0.5% deoxycholate acid) with protease inhibitors. Lysates containing equal amounts of total protein were pre-cleared overnight with 1 mg mouse IgG (Sigma) coupled with protein A/G-Sepharose mix (Amersham Biosciences) and the beads centrifuged. Supernatants were immuno-precipitated using 5 μl of anti-ARTS antibody for 4 h, anti-XIAP antibody, rabbit anti-myc antibody, or mouse IgG (negative control). Protein A/G Sepharose beads were added for 1 hour and washed four times with PBS. Antibodies against XIAP (as above), Myc (Santa Cruz), or anti-ARTS (NT) antibodies directed against the common N′ terminus of ARTS and H5 (ProSci Incorporated) were used for Western blot.

Test [2] has as its system ARTS. Briefly: Cell fractionation, ARTS levels in sub-cellular fractions. The following applies: treated with staurosporine (STS) for 1 hour. It is filed as cell-based. On the procedure: Cells were homogenized in 20 mM HEPES-KOH, pH 7.5, 10 mM KCl, 1.5 mM MgCl2, 1 mM sodium EDTA, 1 mM sodium EGTA, and 1 mM dithiothreitol in the presence of 250 mM sucrose and protease inhibitors. Homogenates were centrifuged at 500×g for 5 min at 4° C., and the supernatant was centrifuged at 10,000×g for 20 min to obtain mitochondria. The pellet was washed and solubilized in TNC buffer (10 mM Tris acetate, pH 8.0, 0.5% Nonidet P-40 (NP-40), 5 mM CaCl2) with protease inhibitors. Protein concentration was determined with a Micro-BCA kit (Pierce).

In test [3] the test system is XIAP. Briefly: Co-immunoprecipitation of ARTS-XIAP complexes in NRP154 cells. It is filed as cell-based, rat. On the procedure: as §1
Test [4] has as its system COS-7 cells. Briefly: Immunofluorescence of ARTS and XIAP localization in COS-7 cells. As to conditions: for ARTS and XIAP co-localization: COS-7 cells transfected with AU5-ARTS and pcDNA3-Myc-XIAP, 100 mM etoposide. In kind it is cell-based, African Green Monkey. How it is done: Cells were fixed with 4% paraformaldehyde in PBS for 20 min at room temperature, washed with PBS, permeabilized with 0.5% Triton-X in PBS for 5 min, and incubated with primary antibodies for 2 hours at room temperature (rabbit polyclonal anti-ARTS (1:20,000; Sigma), monoclonal anti-ARTS, and/or monoclonal anti-XIAP (1:500; used in subsequent Examples). Cells were washed three times with PBS/0.1% Triton-X and incubated with FITC conjugated anti-mouse and Rhodamin^TX-conjugated anti-rabbit secondary antibodies (Jackson). Images were analyzed using a confocal laser microscope (Zeiss LSM 510). Mitochondria were visualized with MitoTracker® Red CMXRos (Molecular Probes/Invitrogen).
For caspase inhibition, we added […] of BOC-Asp(Ome)CH2F (Enzyme Systems Products) one hour prior to addition of the apoptotic agents.

Test [5] has as its target T1, XIAP (Homo sapiens, UniProt P98170).
T1 construct: made in house; host or cells: bacteria (pGEX-XIAP plasmid obtained from Dr. Colin S. Duckett)
The test can be described thus: GST pull-down assay of ARTS and XIAP. In kind it is binding. The following applies: lysates of COS-7 cells transfected with AU5-tagged construct; Western blot anti-AU5. The text has this: For the glutathione-S-transferase (GST)-pull down assays, ARTS was subcloned into the pGEX 4T™ (Pharmacia Biotech) construct; GST-ARTS fusion protein was generated by Polymerase Chain Reaction (PCR) using the following primers: • BamHI-5′-[…]-3′ (SEQ ID No: 4) and • EcoRI-5′ […]-3′ (SEQ ID No: 5) and cloned into BamHI and EcoRI sites in pGEX 4T. Preparation of Beads
For in vitro binding studies, recombinant GST-ARTS or GST-XIAP fusion proteins were purified from bacteria. After sonication, 0.1% Triton X-100 and protease inhibitors (Mini-Complete™, Roche) were added to the bacterial extract followed by 10,000 rotations per minute (RPM) centrifugation. Supernatants of bacterial extracts were collected and incubated in the presence of glutathione-Sepharose 4B beads (Amersham Biosciences) for 30 minute at 4° C. The beads were washed three times.
Cells were lysed in RIPA buffer (150 mM NaCl, 50 mM Tris-HCl (pH 8), 1% NP-40, 0.1% SDS, 0.5% deoxycholate acid containing protease inhibitors (mini Complete, Roche)). Samples were divided into two tubes; one was rotated for 4 h at 4° C. with GST-ARTS fusion protein coupled with the glutathione beads, or GST-XIAP fusion protein. The second tube was incubated with glutathione beads alone (negative control). Samples were centrifuged at 4000-RPM at 4° C. for 4 minute and washed five times in lysis buffer, then boiled in sample buffer for 5 minutes to elute bound proteins Proteins were separated on 12.5% SDS-PAGE gel followed by Western blot analysis using monoclonal anti-ARTS antibody (Sigma), monoclonal anti-XIAP antibody (BD Transduction Laboratories) or monoclonal anti-myc antibody (Clontech).
For orientation: Immunoblotting shows a protein as a band on a membrane.

The conditions of test [6]: Larisch S et al, Nat Cell Biol 2: 915-921, 2000; cited from earlier work.

T1 sequence (P98170 whole entry): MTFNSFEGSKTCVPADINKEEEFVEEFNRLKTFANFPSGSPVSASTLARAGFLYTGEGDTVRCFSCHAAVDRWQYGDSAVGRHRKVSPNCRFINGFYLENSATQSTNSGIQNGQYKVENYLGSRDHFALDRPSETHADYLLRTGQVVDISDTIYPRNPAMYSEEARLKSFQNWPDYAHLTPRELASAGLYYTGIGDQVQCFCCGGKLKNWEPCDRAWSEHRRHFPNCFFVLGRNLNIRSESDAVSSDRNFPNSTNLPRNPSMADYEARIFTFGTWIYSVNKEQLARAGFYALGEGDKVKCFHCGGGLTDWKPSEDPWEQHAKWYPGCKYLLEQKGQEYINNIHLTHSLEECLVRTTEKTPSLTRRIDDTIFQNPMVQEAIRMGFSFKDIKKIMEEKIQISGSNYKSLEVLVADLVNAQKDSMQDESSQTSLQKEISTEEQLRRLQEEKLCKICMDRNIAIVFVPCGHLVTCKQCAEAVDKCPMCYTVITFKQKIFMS

In the case of `CN[C@@H]1C[C@H]2O[C@@](C)([C@@H]1OC)n1c3ccccc3c3c4c(c5c6ccccc6n2c5c31)C(=O)NC4` [staurosporine, reference compound], in test [1] (COS-7 cells, endogenous proteins, three hours of incubation with staurosporine), the ARTS-XIAP binding result is given as “significant increase in ARTS-XIAP binding”. Further, in test [2], the “ARTS levels in the cytosol” value is “strongly increased”.
As for `COc1cc([C@@H]2c3cc4c(cc3[C@@H](O[C@@H]3O[C@@H]5CO[C@@H](C)O[C@H]5[C@H](O)[C@H]3O)[C@H]3COC(=O)[C@H]23)OCO4)cc(OC)c1O` [etoposide], the ARTS-XIAP complexes result in test [3] (6 hours of etoposide treatment (100 μM)) is “increased further”; in test [3] (three hours of etoposide treatment (100 μM)) it was “a large number of ARTS-XIAP complexes were detected”. Further, the ARTS localization result in test [4] (ARTS-transfected COS-7 cells treated with etoposide, absence of caspase inhibitors) is “accumulated ARTS in the nucleus”. In addition, the “ARTS and XIAP co-localization” value was “extensive overlap between ARTS and XIAP staining” in test [4] (2 hours); “most of the staining for both proteins was confined to the nucleus” in test [4] (16 hours).

B1: H5: H5 septin protein derived by differential splicing from the same locus as ARTS; considerably larger protein (protein)
chain: MDRSLGWQGNSVPEDRTEAGIKRFLEDTTDDGELSKFVKDFSGNASCHPPEAKTWASRPQVPEPRPQAPDLYDDDLEFRPPSRPQSSDNQQYFCAPAPLSPSARPRSPWGKLDPYDSSEDDKEYVGFATLPNQVHRKSVKKGFDFTLMVAGESGLGKSTLVNSLFLTDLYRDRKLLGAEERIMQTVEITKHAVDIEEKGVRLRLTIVDTPGFGDAVNNTECWKPVAEYIDQQFEQYFRDESGLNRKNIQDNRVHCCLYFISPFGHGLRPLDVEFMKALHQRVNIVPILAKADTLTPPEVDHKKRKIREEIEHFGIKIYQFPDCDSDEDEDFKLQDQALKESIPFAVIGSNTVVEARGRRVRGRLYPWGIVEVENPGHCDFVKLRTMLVRTHMQDLKDVTRETHYENYRAQCIQSMTRLVVKERNRNKLTRESGTDFPIPAVPPGTDPETEKLIREKDEELRRMQEMLHKIQKQMKENY
modifications: left off: small tags and cut ends
For the molecule B1, the “binding to GST-XIAP” value in test [5] is given as “Neither ARTSΔC nor H5 were able to bind to XIAP”. Moreover, in test [1] (COS-7 cells co-transfected with pcDNA-mycXIAP and AU5-tagged construct), the “binding to XIAP in co-IP” value was “Neither of these mutants bound to XIAP”. In addition, in test [6], the pro-apoptotic activity result is given as “lacks pro-apoptotic activity”.

(Values after patent US20050227302A1, “Induction of apoptosis via ARTS-IAP complexes” (priority 2004, published 2005).)
